{"source": "paper PMC8117302", "about": "(Breast Cancer Research : BCR, 2021)", "key": {"MCF7 WT ERα tumors": {"test_system": "MCF7 WT ERα tumors", "assay": "MIND xenograft dose-response study, MCF7 WT ERα", "format": "in vivo, NSG mice", "conditions": "vehicle 4%, p = NS"}, "MCF7 Y537S ERα tumors [1]": {"test_system": "MCF7 Y537S ERα tumors", "assay": "MIND xenograft dose-response study, MCF7 Y537S ERα", "format": "in vivo, NSG mice", "conditions": "5 and 10 mg/kg s.c. 5 days/week, at sacrifice 70 days after treatment initiation, vs vehicle", "procedure": "Mouse studies were performed in compliance with an approved Institutional Animal Care and Use Committee protocol at the University of Chicago. To better mimic the progression of ductal lesions to invasive disease, a mammary intraductal (MIND) mouse model was used. NSG (NOD.Cg-Prkdc^scid Il2rg^tm1Wjl/SzJ) mice (Jackson Laboratories) were anesthetized by intraperitoneal injections with a ketamine/xylazine (100/5 mg/kg) mixture in PBS prior to cancer cell injections. Single-cell suspensions of 250,000 WT or mutant MCF7 cells were injected in the mammary ducts of inguinal glands as previously described. Tumor cell growth in situ was followed once weekly or biweekly after injection via luminescence imaging with a Xenogen IVIS 200 instrument in the Integrated Small Animal Imaging Research Resource at the University of Chicago. […] Effects were evaluated in the models expressing WT, Y537S, and D538G ERα for monotherapies, and in the model expressing Y537S ERα for combination therapies.\nTreatment was initiated 2 to 3 weeks (dose-response study) or at day 20 (combination study) after cancer cell injections. […] Metastases were evaluated with ex vivo imaging of excised long bones, brains, lungs, and livers and quantified by luciferase activity for the combination study.\nTissues were harvested and fixed in formalin. […] Lung and bone metastases were analyzed using the NSI-Elements software from Nikon. […]"}, "MCF7 D538G ERα tumors": {"test_system": "MCF7 D538G ERα tumors", "assay": "MIND xenograft dose-response study, MCF7 D538G ERα", "format": "in vivo, NSG mice", "conditions": "for liver metastases (H&E): D538G mice"}, "MCF7 Y537S ERα tumors [2]": {"test_system": "MCF7 Y537S ERα tumors", "assay": "MIND xenograft combination study, MCF7 Y537S ERα, bone histology", "format": "in vivo, NSG mice", "conditions": "for tumor metastases to the bone (H&E and IHC staining of bone marrow): Y537S model, 5 mg/kg LAS, in contrast to vehicle control, 5 mg/kg"}, "breast cancer": {"test_system": "breast cancer", "conditions": "PEARL trial, 5 years of LAS; cited from earlier work"}, "[3]": {"conditions": "lasofoxifene 5 mg/kg, 10 legs examined"}, "[4]": {"conditions": "lasofoxifene 10 mg/kg, 10 legs examined"}, "[5]": {"conditions": "fulvestrant 5 mg/mouse, 10 legs examined"}, "[6]": {"conditions": "palbociclib 35 mg/kg, 12 legs examined"}, "[7]": {"conditions": "palbociclib 70 mg/kg, 12 legs examined"}}, "note": "Where “and” joins values, the source holds several entries; their conditions need not be identical. Equal entries are not always repeated.", "data": [{"molecule": "Oc1ccc2c(c1)CC[C@H](c1ccccc1)[C@@H]2c1ccc(OCCN2CCCC2)cc1", "note": "[Lasofoxifene]", "values": [{"measurement": "average percent area of lung metastasis", "setting": "MCF7 WT ERα tumors; all tested doses (1, 5, 10 mg/kg s.c. 5 days/week)", "result": "0.9–1.5%"}, {"measurement": "Reduction in tumor weight", "setting": "MCF7 Y537S ERα tumors [1]", "result": "approximately 60%"}, {"measurement": "liver metastases (H&E)", "setting": "MCF7 D538G ERα tumors; LAS 1, 5, 10 mg/kg s.c. 5 days/week", "result": "no liver metastases were observed"}, {"measurement": "Reduction in tumor weight", "setting": "MCF7 D538G ERα tumors; D538G, 5 and 10 mg/kg s.c. 5 days/week, at sacrifice 70 days after treatment initiation, vs vehicle", "result": "~50", "unit": "%"}, {"measurement": "tumor metastases to the bone (H&E and IHC staining of bone marrow)", "setting": "MCF7 Y537S ERα tumors [2]", "result": "No metastases were observed"}, {"measurement": "tumor metastases to the bone (H&E and IHC staining of bone marrow)", "setting": "MCF7 Y537S ERα tumors [2]; listed as LAS", "result": "completely blocked"}, {"measurement": "Number of legs with metastases", "setting": "MCF7 Y537S ERα tumors [2]; [3]", "result": "none"}, {"measurement": "Number of legs with necrosis", "setting": "MCF7 Y537S ERα tumors [2]; [3]", "result": "none"}, {"measurement": "Number of legs with metastases", "setting": "MCF7 Y537S ERα tumors [2]; [4]", "result": "none"}, {"measurement": "Number of legs with necrosis", "setting": "MCF7 Y537S ERα tumors [2]; [4]", "result": "none"}, {"measurement": "reduced risk for invasive ER+ breast cancer", "setting": "breast cancer", "result": 83, "unit": "%"}, {"measurement": "reduced risk for total breast cancers", "setting": "breast cancer", "result": 79, "unit": "%"}]}, {"molecule": "C[C@]12CC[C@@H]3c4ccc(O)cc4C[C@@H](CCCCCCCCC[S+]([O-])CCCC(F)(F)C(F)(F)F)[C@H]3[C@@H]1CC[C@@H]2O", "note": "(stereo partly shown) [Fulvestrant]", "values": [{"measurement": "average percent area of lung metastasis", "setting": "MCF7 WT ERα tumors; 5 mg/mouse s.c. once per week", "result": 1, "unit": "%"}, {"measurement": "liver metastases (H&E)", "setting": "MCF7 D538G ERα tumors; FUL 5 mg/mouse s.c. once per week", "result": "no liver metastases were observed"}, {"measurement": "Number of legs with metastases", "setting": "MCF7 Y537S ERα tumors [2]; [5]", "result": 2}, {"measurement": "Number of legs with necrosis", "setting": "MCF7 Y537S ERα tumors [2]; [5]", "result": 1}, {"measurement": "% necrosis", "setting": "MCF7 Y537S ERα tumors [2]; fulvestrant 5 mg/mouse, leg with necrosis", "result": 18, "unit": "%"}, {"measurement": "Metastases, % of bone marrow, for each leg with metastasis", "setting": "MCF7 Y537S ERα tumors [2]; fulvestrant 5 mg/mouse, listed as FUL", "result": "1% and 10%"}]}, {"molecule": "CC(=O)c1c(C)c2cnc(Nc3ccc(N4CCNCC4)cn3)nc2n(C2CCCC2)c1=O", "note": "[Palbociclib]", "values": [{"measurement": "Number of legs with metastases", "setting": "MCF7 Y537S ERα tumors [2]; [6]", "result": "none"}, {"measurement": "Number of legs with necrosis", "setting": "MCF7 Y537S ERα tumors [2]; [6]", "result": "none"}, {"measurement": "Number of legs with metastases", "setting": "MCF7 Y537S ERα tumors [2]; [7]", "result": "none"}, {"measurement": "Number of legs with necrosis", "setting": "MCF7 Y537S ERα tumors [2]; [7]", "result": "none"}]}]}
